Literature values in US8859624B2, “Stable rasagiline composition” (Chongqing Pharmaceutical Research Institute Co., Ltd., priority 2009, dated 2014).

Conditions: taking food after oral administration

For `C#CCN[C@@H]1CCc2ccccc21` [Rasagiline, rasagiline], the “decrease of blood drug concentration” value is listed as 60%.
